Earlier results, collected in patent publication EP1110914A2, “Water treatment method and apparatus” (ROHM AND HAAS COMPANY, priority 1999, dated 2001).
Where two headings read alike, the source gives them in different places.

Settings: in water

O=C=O [CO2, carbon dioxide]
CO2 Conc @ 15° C (pressure 101 kPa (1 bar)): 2,523 ppm | CO2 Conc @ 15° C (pressure 507 kPa (5 bar)): 12,613 ppm | CO2 Conc @ 15° C (pressure 931 kPa (9.2 bar)): 23,207 ppm | CO2 Conc @ 20° C (pressure 101 kPa (1 bar)): 2,174 ppm | CO2 Conc @ 20° C (pressure 507 kPa (5 bar)): 10,868 ppm | CO2 Conc @ 20° C (pressure 931 kPa (9.2 bar)): 19,996 ppm | CO2 Conc @ 25° C (pressure 101 kPa (1 bar)): 1,876 ppm | CO2 Conc @ 25° C (pressure 507 kPa (5 bar)): 9,381 ppm | CO2 Conc @ 25° C (pressure 931 kPa (9.2 bar)): 17,261 ppm
